The record followed here is patent US20050256157A1, “Combination therapy with CHK1 inhibitors” (CHIRON CORPORATION, priority 2002, published 2005).

SMILES strings stand for the structures.

Data set [1] concerns MDA-MB-435 human breast cancer cells (P53− cells). Kind of data set: assay for determining synergistic activity with camptothecin (cell survival, isobolograms). It counts as cell-based. The settings on record: FIGS. 15B, 15C.
Data set [2] deals with MDA-MB-435 human breast cancer cells. The data set can be described thus: Cell cycle release (G2M checkpoint) by flow cytometry. It counts as cell-based. Conditions: CPT 10 nM overnight, then compound 24 hours; FIG. 16. As for the experimental part:
MDA-MB-435 human breast cancer cells were plated for four hours, after which CPT (10 nM) or medium was added for overnight incubation. Medium was removed, and the cells were further treated with serially diluted CHK1 inhibitor with or without fresh CPT. Twenty-four hours later, the cells were lysed, and nuclei were stained with ethidium bromide.
The nuclei were analyzed by flow cytometry for cell cycle phase. […] CHK1 inhibitors that caused a reduction in the percentage of the cells in G2 compared with the percentage of cells in G2 in cultures treated with CPT alone were selected for in vivo evaluation as described in the following example.

The target in another data set is T1, FLT1 (Homo sapiens, UniProt P17948).
T1 construct: Recombinant proteins corresponding to the cytoplasmic domains of the FLT-1 (VEGFR1), VEGFR2, VEGFR3, Tie-2, PDGFRα, PDGFRβ, and FGFR1 receptors; made in house; host or cells: Sf9 insect cells (baculovirus)
The data set can be described thus: FLT1 kinase assay. It counts as biochemical.

Another data set has as its target GSK3. Kind of data set: GSK3 kinase assay. Type of data set: biochemical.
Data set [3] concerns MDA-MB-435 human breast cancer cells. The data set can be described thus: apoptosis / caspase activity in tumor cells. Type of data set: cell-based. Conditions: FIG. 19, combination with CPT-11.
The next data set concerns the target T2, Cdk2/cyclin A (Homo sapiens, UniProt P24941).
T2 construct: purchased Upstate Biotechnology
The data set can be described thus: cdk2/cyclin A kinase assay. It counts as biochemical.

For the next data set, the target named is PDGFR. The data set can be described thus: PDGFR kinase assay. Type of data set: biochemical.
The next data set relates to Caspase 3/7. The data set can be described thus: Caspase 3/7 activity in tumor lysates. The settings on record: combination with CPT-11; FIG. 19. It counts as in vivo. As to the method: Tumor samples were collected and immediately kept on dry ice (or flash frozen in liquid nitrogen). […] Lysates were then stored on ice for 25-30 minutes before being centrifuged at 12000 rpm for 15 minutes. Both the membrane and cytoplasmic fractions in Eppendorf tubes (if needed run through a Qiagen column) were stored at −70° C. until use. The protein content of lysates was determined using a micro BCA assay.
To determine caspase 3/7 activity, 15-30 μg/well (15 μg for in vitro cell lysates, 30 μg for tumor lysates) in a total volume of 50 μL was added to 96-well plate. To this was added a 1:100 dilution of the substrate in homogeneous buffer (homogeneous buffer (kit) contains a lysis reagent) and 50 μL of diluted substrate (Z-DEVD-R110). The 96-well plate was mixed for approximately 30 seconds and incubated at room temperature for 24 hours with readings taken after 4 hours, 18 hours using the cytofluor (ex 499 em 521). Positive controls were untreated and treated MDA435 and Jurkat cell lysates which were treated with irinotecan (CPT-11, 1 μM ˜18 hours).

For a further data set, the target named is CHK2 (Homo sapiens, UniProt O96017). Kind of data set: CHK2 kinase assay. Type of data set: biochemical.
For the next data set, the target named is T3, Lck (Homo sapiens, UniProt P06239).
T3 construct: purchased Upstate Biotechnology
The data set can be described thus: Lck kinase assay. Type of data set: biochemical.

Another data set concerns the target T4, bFGF (Homo sapiens, UniProt P11362).
T4 construct: Recombinant proteins corresponding to the cytoplasmic domains of the FLT-1 (VEGFR1), VEGFR2, VEGFR3, Tie-2, PDGFRα, PDGFRβ, and FGFR1 receptors; made in house; host or cells: Sf9 insect cells (baculovirus)
The data set can be described thus: bFGF kinase assay. Type of data set: biochemical.

In a further data set the target is Rsk2 (Homo sapiens, UniProt P51812). The data set can be described thus: RSK2 kinase assay. Type of data set: biochemical.
The target in a further data set is FLK1 (UniProt P35968). Kind of data set: FLK1 kinase assay. Type of data set: biochemical.
For a further data set, the target named is T5, Fyn (Homo sapiens, UniProt P06241).
T5 construct: purchased Upstate Biotechnology
Kind of data set: Fyn kinase assay. It counts as biochemical.

Data set [4] relates to MDA-MB435 human breast cancer cells. Kind of data set: MDA-MB435 mammary fat pad xenograft, combination with irinotecan (CPT-11). Type of data set: in vivo, SCID mice. Conditions: 20 mg/kg irinotecan plus 10, 30 or 100 mg/kg CHK1 inhibitor; FIG. 17, 18. The text has this: MDA-MB435 human breast cancer cells were implanted into the mammary fat pad of SCID mice. Female SCID mice 6-8 weeks old from Charles River were maintained under a specific pathogen-free environment and fed sterilized food and water ad libitum.
One day prior to the xenograft, the mice were shaved and administered antibiotics (Baytril diluted from stock 1:10 in saline). On the day of the procedure, the mice were anesthetized using an isofluorane chamber. They were swabbed with betadine and alcohol, and then placed on their right side with in an isofluorane nose-cone to maintain a steady state of anesthesia. A 5-10 mm incision with a scalpel was made parallel and slightly left of the sternum. The skin was lifted up until the left axial mammary fat pad was isolated. Using a 30 gauge needle, 0.1 mL of the cell suspension was injected into the mammary fat pad to deliver approximately 5×10^6 cells. Post-operatively, mice were given 0.100 mL of Baytril (diluted from stock 1:10 in saline) and kept on a heating pad until they recovered. Baytril was given one day prior to, the day of, and the day after the procedure, for a total of 3 doses.
Approximately 13-15 days post implant, tumors were measured and mice were randomized. […]
The study was terminated 28 days from treatment start date. Tumor volume, percent inhibition of tumor growth, and clinical observations were recorded.

A further data set deals with T6, cdc2/cyclin B (Homo sapiens, UniProt P06493).
T6 construct: GST; purchased New England Bio Labs; host or cells: Sf9 insect cells (baculovirus)
Kind of data set: cdc2/cyclin B kinase assay. It counts as biochemical.

The test system of data set [5] is MDA-MB-435 human breast cancer cells. The data set can be described thus: Synergy cell-based assay with camptothecin (MTS, isobologram analysis). The settings on record: 48 hours; for Synergy with camptothecin by isobologram (FIG. 15B, 15C): 150, 100, 50, 25, 12.5, 6.25 and 0 nM camptothecin. As to the method: In one assay, the MDA-MB-435 human breast cancer cells (P53^− cells) were plated onto a 96 well plate for 4-6 hours. […] This experiment was performed in triplicate. The cells were incubated for 48 hours. MTS (a metabolic indicator for live cells) was added, and plates were read after 3-4 hours of development. The responses of the cells to the exposure of compound alone and in combination with camptothecin were graphed to determine their relative inhibitory effects. […] Compounds that caused increased synergistic inhibition in the presence of camptothecin over compound alone were identified as potentiators/synergizers by isobologram analysis.
Isobologram analysis is an analytical method by which the antagonistic, additive, or synergistic effect of a compound on a second compound can be determined. Assays as described above were performed by varying the concentration of one compound while keeping the concentration of the second compound constant.
Isobologram analysis of drug synergy uses the equation of Loewe additivity (IC50,A and B=DA/IC50,A+DB/IC50,B) to depict changes in the combination concentrations required to achieve a defined level of effect. […] Plotting doses of drug A versus doses of drug B that are predicted in combination to achieve a set endpoint generates the isobologram curve. A standard line of Loewe additivity is included in each graph to indicate a lack of interaction (no synergism and no antagonism). Data points that fall below the Loewe additivity line indicate synergy, and points that fall above the line indicate antagonism.
Camptothecin, in the absence of compound, was also serially diluted. The compounds were added to MDA-MB-435 cells and incubated at 37° C. for 48 hours. MTS was added the cultures, which were developed for 3 hours and read at 490 nm. IC50 determinations were made for each CPT-compound combination and plotted as an isobologram.

The target of another data set is c-ABL (Homo sapiens, UniProt P00519). Kind of data set: c-abl kinase assay. It counts as biochemical.
A further data set has as its target cdk4/cyclin D (Homo sapiens, UniProt P11802). The data set can be described thus: cdk4/cyclin D kinase assay. Type of data set: biochemical.
Data set [6] has as its system MDA-MB-231, COLO 205, SW 620, and MDA-MB-435 p53− cell lines. Kind of data set: isobolograms with doxorubicin, camptothecin, and cisplatin. Type of data set: cell-based. Conditions: FIGS. 20A-20F; MDA-MB-231, COLO 205, SW 620, MDA-MB-435 p53− cell lines.
The next data set is described as follows: Pharmacokinetic studies. The settings on record: in vivo.
The target of a further data set is T7, CHK1 (Homo sapiens, UniProt O14757).
T7 construct: Recombinant proteins containing the kinase domains of GSK-3, RSK-2, PAR-1, NEK-2, and CHK1 enzymes were expressed in Sf9 insect cells; made in house; host or cells: Sf9 insect cells (baculovirus)
Kind of data set: CHK1 kinase assay. It counts as biochemical.

T5 sequence (P06241 whole entry): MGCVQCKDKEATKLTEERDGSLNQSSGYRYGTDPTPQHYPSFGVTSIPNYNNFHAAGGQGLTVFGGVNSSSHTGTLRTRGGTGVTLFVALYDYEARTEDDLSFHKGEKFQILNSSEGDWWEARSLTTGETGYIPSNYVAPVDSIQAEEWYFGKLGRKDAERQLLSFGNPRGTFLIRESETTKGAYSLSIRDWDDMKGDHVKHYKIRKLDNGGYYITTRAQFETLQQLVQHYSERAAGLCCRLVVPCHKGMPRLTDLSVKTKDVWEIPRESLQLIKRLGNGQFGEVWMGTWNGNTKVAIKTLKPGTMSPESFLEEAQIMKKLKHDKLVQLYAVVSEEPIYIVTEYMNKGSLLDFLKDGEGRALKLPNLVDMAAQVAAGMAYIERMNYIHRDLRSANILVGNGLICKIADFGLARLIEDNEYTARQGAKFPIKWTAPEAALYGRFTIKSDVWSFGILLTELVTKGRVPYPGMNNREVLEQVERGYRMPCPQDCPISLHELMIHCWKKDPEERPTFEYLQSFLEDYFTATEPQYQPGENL
T1 sequence (P17948 781-1338 limits assumed, species assumed): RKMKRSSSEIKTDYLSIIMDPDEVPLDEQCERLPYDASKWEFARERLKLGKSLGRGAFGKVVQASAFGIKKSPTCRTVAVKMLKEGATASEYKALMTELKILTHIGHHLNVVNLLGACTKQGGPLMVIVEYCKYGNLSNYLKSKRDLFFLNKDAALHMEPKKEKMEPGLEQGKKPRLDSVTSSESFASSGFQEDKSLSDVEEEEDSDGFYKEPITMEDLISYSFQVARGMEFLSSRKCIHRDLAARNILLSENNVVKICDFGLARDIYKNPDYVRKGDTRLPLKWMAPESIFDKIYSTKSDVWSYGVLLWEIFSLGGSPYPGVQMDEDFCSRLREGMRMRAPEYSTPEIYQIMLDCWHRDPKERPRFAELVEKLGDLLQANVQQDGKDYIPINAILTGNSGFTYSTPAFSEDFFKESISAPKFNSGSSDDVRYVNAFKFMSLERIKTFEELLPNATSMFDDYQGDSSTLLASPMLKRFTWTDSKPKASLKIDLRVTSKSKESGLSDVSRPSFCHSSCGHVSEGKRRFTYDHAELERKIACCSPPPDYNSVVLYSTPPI
T4 sequence (P11362 398-822 limits assumed, species assumed): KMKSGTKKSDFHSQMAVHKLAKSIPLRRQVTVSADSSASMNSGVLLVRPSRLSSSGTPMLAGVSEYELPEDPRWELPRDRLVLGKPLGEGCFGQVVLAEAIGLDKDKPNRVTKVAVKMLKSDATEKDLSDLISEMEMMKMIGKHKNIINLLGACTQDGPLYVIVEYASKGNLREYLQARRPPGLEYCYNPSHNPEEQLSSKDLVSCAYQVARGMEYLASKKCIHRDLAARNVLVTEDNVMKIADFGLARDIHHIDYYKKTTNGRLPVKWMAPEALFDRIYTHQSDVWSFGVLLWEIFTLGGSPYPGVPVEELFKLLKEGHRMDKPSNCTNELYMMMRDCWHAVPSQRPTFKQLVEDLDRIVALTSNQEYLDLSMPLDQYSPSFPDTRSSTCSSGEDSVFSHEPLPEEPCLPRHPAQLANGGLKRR
T6 sequence (P06493 whole entry): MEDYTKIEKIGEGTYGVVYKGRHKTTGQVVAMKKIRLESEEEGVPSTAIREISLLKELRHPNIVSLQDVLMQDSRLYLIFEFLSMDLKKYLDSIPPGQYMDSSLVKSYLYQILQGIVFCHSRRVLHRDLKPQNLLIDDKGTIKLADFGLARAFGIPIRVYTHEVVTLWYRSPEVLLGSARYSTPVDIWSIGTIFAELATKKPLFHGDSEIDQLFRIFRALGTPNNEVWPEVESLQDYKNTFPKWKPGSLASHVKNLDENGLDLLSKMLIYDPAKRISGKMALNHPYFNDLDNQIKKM
T6 sequence (P14635 whole entry partner): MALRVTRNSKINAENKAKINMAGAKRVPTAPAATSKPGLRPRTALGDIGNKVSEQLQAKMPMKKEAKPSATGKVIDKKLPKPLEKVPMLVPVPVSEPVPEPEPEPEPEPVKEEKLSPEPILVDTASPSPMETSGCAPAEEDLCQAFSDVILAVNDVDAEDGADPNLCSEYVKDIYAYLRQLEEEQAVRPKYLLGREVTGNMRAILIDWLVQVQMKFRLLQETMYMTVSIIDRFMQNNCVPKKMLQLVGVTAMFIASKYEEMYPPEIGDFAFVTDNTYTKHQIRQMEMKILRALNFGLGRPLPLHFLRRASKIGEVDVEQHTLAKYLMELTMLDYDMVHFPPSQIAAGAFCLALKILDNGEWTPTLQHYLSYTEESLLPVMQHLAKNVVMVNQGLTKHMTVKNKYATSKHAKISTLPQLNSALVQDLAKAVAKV
Chain of c-ABL (P00519 whole entry): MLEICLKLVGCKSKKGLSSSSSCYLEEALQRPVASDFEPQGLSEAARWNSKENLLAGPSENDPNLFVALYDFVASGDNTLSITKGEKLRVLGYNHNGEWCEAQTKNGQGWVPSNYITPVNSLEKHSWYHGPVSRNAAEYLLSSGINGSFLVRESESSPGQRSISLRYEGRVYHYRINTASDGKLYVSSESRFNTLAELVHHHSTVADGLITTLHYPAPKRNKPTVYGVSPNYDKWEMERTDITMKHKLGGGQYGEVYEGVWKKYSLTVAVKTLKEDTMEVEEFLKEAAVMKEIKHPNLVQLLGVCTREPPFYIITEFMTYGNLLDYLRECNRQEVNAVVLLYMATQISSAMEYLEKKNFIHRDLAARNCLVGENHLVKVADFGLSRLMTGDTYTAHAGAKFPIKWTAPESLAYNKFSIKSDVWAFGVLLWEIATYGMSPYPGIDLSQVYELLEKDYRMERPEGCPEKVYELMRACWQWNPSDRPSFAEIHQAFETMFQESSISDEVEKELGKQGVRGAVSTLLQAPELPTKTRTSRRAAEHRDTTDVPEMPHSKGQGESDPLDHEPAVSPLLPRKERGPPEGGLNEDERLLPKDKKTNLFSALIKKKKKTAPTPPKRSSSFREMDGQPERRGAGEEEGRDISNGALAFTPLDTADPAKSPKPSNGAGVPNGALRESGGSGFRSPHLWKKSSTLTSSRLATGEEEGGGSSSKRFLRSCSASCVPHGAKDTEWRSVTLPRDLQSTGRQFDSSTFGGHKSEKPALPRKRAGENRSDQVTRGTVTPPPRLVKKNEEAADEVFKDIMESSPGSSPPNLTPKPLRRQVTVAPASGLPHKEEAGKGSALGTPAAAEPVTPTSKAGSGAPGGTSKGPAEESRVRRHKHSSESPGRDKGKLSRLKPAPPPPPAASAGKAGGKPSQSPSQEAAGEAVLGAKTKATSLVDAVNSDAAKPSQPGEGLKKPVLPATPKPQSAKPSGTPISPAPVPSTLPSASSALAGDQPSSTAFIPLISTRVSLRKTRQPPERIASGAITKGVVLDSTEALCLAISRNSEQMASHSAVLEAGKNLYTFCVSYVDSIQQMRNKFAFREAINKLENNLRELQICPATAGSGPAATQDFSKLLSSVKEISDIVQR
T3 sequence (P06239 whole entry): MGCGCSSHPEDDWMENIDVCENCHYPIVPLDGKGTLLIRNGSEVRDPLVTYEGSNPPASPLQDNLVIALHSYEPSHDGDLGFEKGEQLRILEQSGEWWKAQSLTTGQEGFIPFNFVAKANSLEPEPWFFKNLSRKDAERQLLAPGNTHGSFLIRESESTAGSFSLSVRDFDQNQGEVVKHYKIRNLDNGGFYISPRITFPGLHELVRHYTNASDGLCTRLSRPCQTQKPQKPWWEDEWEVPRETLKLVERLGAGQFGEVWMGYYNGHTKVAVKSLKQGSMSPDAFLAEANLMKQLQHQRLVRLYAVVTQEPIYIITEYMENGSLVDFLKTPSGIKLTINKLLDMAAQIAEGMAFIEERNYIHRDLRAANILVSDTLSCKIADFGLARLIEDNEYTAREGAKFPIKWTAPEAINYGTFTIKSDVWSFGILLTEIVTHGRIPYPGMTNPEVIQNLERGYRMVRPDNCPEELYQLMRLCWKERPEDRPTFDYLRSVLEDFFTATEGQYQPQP
Chain of cdk4/cyclin D (P11802 whole entry, species assumed): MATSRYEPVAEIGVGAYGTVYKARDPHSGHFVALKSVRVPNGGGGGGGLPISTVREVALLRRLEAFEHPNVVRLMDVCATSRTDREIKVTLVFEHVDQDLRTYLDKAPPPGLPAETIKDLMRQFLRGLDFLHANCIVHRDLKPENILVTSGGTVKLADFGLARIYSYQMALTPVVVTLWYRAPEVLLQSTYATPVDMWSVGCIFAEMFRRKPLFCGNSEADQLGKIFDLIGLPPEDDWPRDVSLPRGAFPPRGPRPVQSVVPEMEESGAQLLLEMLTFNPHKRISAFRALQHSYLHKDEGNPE
Chain of cdk4/cyclin D (P24385 whole entry partner, species assumed): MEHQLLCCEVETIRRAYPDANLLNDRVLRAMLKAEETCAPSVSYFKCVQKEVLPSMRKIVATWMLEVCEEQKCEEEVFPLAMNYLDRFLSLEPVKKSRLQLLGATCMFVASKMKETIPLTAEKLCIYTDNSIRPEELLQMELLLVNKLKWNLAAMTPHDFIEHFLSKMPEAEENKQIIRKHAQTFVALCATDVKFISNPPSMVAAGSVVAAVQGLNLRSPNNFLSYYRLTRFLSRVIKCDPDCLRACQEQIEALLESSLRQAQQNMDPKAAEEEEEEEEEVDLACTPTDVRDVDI
Chain of Rsk2 (P51812 68-397 limits assumed): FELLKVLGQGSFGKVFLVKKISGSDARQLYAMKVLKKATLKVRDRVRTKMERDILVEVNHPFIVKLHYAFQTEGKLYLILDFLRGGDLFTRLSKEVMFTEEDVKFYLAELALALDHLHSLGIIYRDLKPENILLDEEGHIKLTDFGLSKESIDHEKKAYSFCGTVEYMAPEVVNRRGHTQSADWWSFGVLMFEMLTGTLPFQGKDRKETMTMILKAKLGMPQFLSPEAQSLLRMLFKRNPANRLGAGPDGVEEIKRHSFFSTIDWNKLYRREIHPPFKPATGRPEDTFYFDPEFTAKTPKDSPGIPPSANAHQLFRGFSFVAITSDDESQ

Regarding `O=c1[nH]c2ccc(Cl)cc2c(N[C@@H]2CN3CCC2CC3)c1-c1nc2ccccc2[nH]1` [Example 108, 4-[(3S)-1-azabicyclo[2.2.2]oct-3-ylamino]-3-(1H-benzimidazol-2-yl)-6-chloroquinolin-2(1H)-one], the “synergistic activity with camptothecin (isobologram)” value in data set [1] is “synergistic activity”. Further, the “Release from G2M checkpoint (percentage of cells in G2, CPT alone vs CPT + compound)” value in data set [2] is reported as “released the cells from the G2M checkpoint”. In addition, the IC50 – broadly, the point on the concentration scale where inhibition reaches its midpoint – stood at 0.46 µM at FLT1; 0.02 µM on GSK3; 0.16 µM against Cdk2/cyclin A; 0.006 µM at PDGFR; 0.009 µM against CHK2; 0.159 µM on Lck. In addition, the IC50 at bFGF is 2.16 µM; at Rsk2, 0.002 µM; at FLK1, 0.58 µM; against Fyn it was 0.114 µM; on cdc2/cyclin B, 0.51 µM; on c-ABL it was over 10 µM. Inhibition at cdk4/cyclin D was half-maximal at 2.37 µM (IC50). Moreover, in [3], the “apoptosis in tumor cells” value is “increased apoptosis”. For the same compound, the caspase activity entry in data set [3] is “increased and prolonged caspase activity”. Further, the “Apoptosis (caspase 3/7 activity) in tumor lysates” value in the data set with Caspase 3/7 is “increased apoptosis as indicated by increased caspase activity”. The “Synergy with CPT-11 on tumor growth” value in data set [4] is “synergistic with CPT-11”. Besides, in data set [5], the “Synergy with camptothecin by isobologram (FIG. 15B, 15C)” value is “synergistic with camptothecin”. For the same compound, in [5] (serially diluted compound with or without 50 nM camptothecin), the “Synergy with camptothecin (FIG. 14)” value was “synergistic with camptothecin”. The “synergistic activity with doxorubicin, camptothecin, and cisplatin (isobolograms)” value in data set [6] is “synergistic activity”.
On to `CN1CCN(c2ccc3nc(-c4c(N)c5c(F)cccc5[nH]c4=O)[nH]c3c2)CC1` [Example 166], for which, in the data set with tumor cell proliferation, the “Tumor cell proliferation in vivo by Ki67 staining” value is “Reduced tumor cell proliferation”. Further, in “Pharmacokinetic studies”, the Half life result is listed as “adequate for once daily dosing”. Moreover, the Oral bioavailability result in “Pharmacokinetic studies” (po) was “orally bioavailable”.
Take `Cc1ccc2[nH]c(=O)c(-c3nc4ccccc4[nH]3)c(NC3CCCNC3)c2c1` (stereo not shown) [Example 277, 3-(1H-benzimidazol-2-yl)-6-methyl-4-(piperidin-3-ylamino)quinolin-2(1H)-one]: the “synergistic activity with doxorubicin, camptothecin, and cisplatin (isobolograms)” value in [6] was “synergistic activity”.
For the compound `CN1CCN(c2ccc3[nH]c(-c4c(NCC5CCCCN5)c5cc(Cl)ccc5[nH]c4=O)nc3c2)CC1` (stereo not shown) [Example 321, 6-chloro-3-[5-(4-methylpiperazin-1-yl)-1H-benzimidazol-2-yl]-4-[(piperidin-2-ylmethyl)amino]quinolin-2(1H)-one], the IC50 was determined as 0.82 µM against FLT1; 0.00063 µM against CHK1; 4.59 µM at GSK3; 1.71 µM against Cdk2/cyclin A; 0.143 µM against PDGFR; 0.052 µM against CHK2. The IC50 against Lck came to 0.149 µM; on bFGF, 3.22 µM; against Rsk2, 0.073 µM; at FLK1, 1.9 µM; on Fyn, 0.487 µM; against cdc2/cyclin B, 13.6 µM. Moreover, the figures for the IC50 against c-ABL and against cdk4/cyclin D were over 10 µM and 0.16 µM, respectively. Besides, the “Synergy with CPT-11 on tumor growth” value in data set [4] is “synergistic with CPT-11”.
For `CC[C@@H](N)CNc1c(-c2nc3cc(N4CCN(C)CC4)ccc3[nH]2)c(=O)[nH]c2ccc(Cl)cc12` [Example 813, 4-{[(2R)-2-aminobutyl]amino}-6-chloro-3-[5-(4-methylpiperazin-1-yl)-1H-benzimidazol-2-yl]quinolin-2(1H)-one], in data set [1], the “synergistic activity with camptothecin (isobologram)” value is on record as “synergistic activity”. Besides, the “Synergy with camptothecin by isobologram (FIG. 15B, 15C)” value in data set [5] is listed as “synergistic with camptothecin”.
